Results: patent US20110294737A1, “TERMINALLY-DIFFERENTIATED ANUCLEATE PLATELET PROGENY GENERATION” (priority 2008, published 2011)
Entries after “also recorded” stand apart in the source; their conditions may differ.

Experiments:
[1] = system: human platelets; assay: Platelet morphology: formation of extensions with new cell bodies (progeny) in suspension-cultured platelets; format: cell-based; conditions: platelets 1×10^5 per mm^3 cultured in suspension for 6 hours; nevirapine 750 μM; 9-cis retinoic acid 1 and 10 μM
Protocol: Platelet Isolation and Culture. Whole blood was centrifuged at 150×g for 20 minutes to obtain platelet-rich plasma (PRP). Residual leukocytes were removed from the PRP by CD45+ bead selection as previously described^1, 6. The negatively selected platelets were resuspended in serum-free M199 culture medium at 37° C. in a humidified 5% CO2 atmosphere. For select studies, platelets were resuspended in fresh human plasma. […] Unless otherwise indicated, the washed platelets were cultured in suspension using round-bottom polypropylene tubes (Becton Dickinson, Franklin Lakes, N.J.). Platelets were suspended at 100,000/μl.
Platelet Morphology and Protein Expression. Freshly-isolated or aged platelets were either fixed immediately to assess baseline morphology, or after 6 hours of suspension culture as described above.
For studies that used fixed platelets, paraformaldehyde (4%) was added directly to the suspension culture as previously described^1, 6, 26 in order to maintain the native morphology of the cells. The fixed platelets (10,000 total for each sample) were subsequently layered onto coverslips coated with Vectabond™ (Vector Laboratories, Burlingame, Calif.) using a cytospin centrifuge (Shandon Cytospin, Thermo Fisher Scientific, Waltham, Mass.). To determine the number of platelets with extensions and distinct cell bodies, fixed cells were counterstained with Alexa Fluor® 488 phalloidin (A12379; Invitrogen, Eugene, Oreg.), a high-affinity probe for F-actin, and/or an Alexa Fluor® 555 (W32464; Invitrogen) conjugate of wheat germ agglutinin (WGA). Three random fields were captured from each independent experiment and at least 500 total cells, which encompassed individual platelets with two or more distinct cell bodies, were counted (FIG. 1H and FIG. 1I).

[2] = system: human platelets; assay: Surface P-selectin expression of cultured platelets with new cell bodies after agonist activation (immunostaining); format: cell-based; conditions: after 6 hours culture; ADP (2 μM) or thrombin (0.005 U/ml) for 1 minute
Description: For protein localization studies by immunocytochemistry (ICC), fixed cells were stained with antibodies directed against αIIbβ3 and Annexin V (ab34407; Abeam, Cambridge, Mass.), P-selectin (sc-6941; Santa Cruz Biotechnology, Santa Cruz, Calif.), β-tubulin (T-5293; Sigma), or mitofilin (MSM02; MitoSciences, Eugene, Oreg.). Specificity of the staining was confirmed for each antibody with isotype-matched nonimmune IgG. The cells were counterstained with either Alexa Fluor® 488 phalloidin or Alexa Fluor® 555 WGA conjugate as described in the previous paragraph. To assess mitochondrial function, use was made of MitoTracker® Red CM-H2XRos (M7513; Invitrogen), a reduced probe that fluoresces when it enters actively respiring mitochondria. For these studies, MitoTracker® (1 μM) was incubated with the live platelets one hour before the end of the experiment.

[3] = system: endogenous reverse transcriptase (RT) activity in platelets; assay: Reverse transcriptase activity assay in platelet lysates (reverse transcription of MS2 phage RNA); format: biochemical, human; conditions: platelet lysates incubated with compound at 37° C. for 120 minutes; nevirapine 100, 500, 750 μM; 9-cis retinoic acid 0.1, 1, 10 μM
Protocol: Reverse Transcriptase Activity Assay (FIGS. 10A-C and FIGS. 11A-C). The reverse transcriptase (RT) activity assay was performed as previously described^22 with minor modifications. […] MS2 phage RNA was subsequently added to the lysates and reverse transcription of MS2 phage RNA by platelet lysates or a commercial RT (Thermoscript, Invitrogen, Eugene, Oreg.) was determined.

Row | Compound | number of newly-formed cell bodies extending from cultured platelets / progeny formation [1] | surface P-selectin expression in platelets that developed new cell bodies [2] | RT activity in platelets [3]
1 | cytocholasin D | inhibited | – | –
2 | thrombin | did not develop new cells bodies; also recorded: blocks | markedly increased | –
3 | Nc1ncnc2c1ncn2[C@@H]1O[C@H](COP(=O)(O)OP(=O)(O)O)[C@@H](O)[C@H]1O [ADP] | – | markedly increased | –
4 | CC1=C(/C=C/C(C)=C\C=C\C(C)=C\C(=O)O)C(C)(C)CCC1 [9-cis retinoic acid] | – | – | inhibited
5 | Cc1ccnc2c1NC(=O)c1cccnc1N2C1CC1 [nevirapine] | – | – | inhibited
6 | thrombopoietin: key regulator of bone marrow-dependent thrombopoiesis | no effect | – | –
